Data as given in patent publication US12173026B2, “PRMT5 inhibitors” (Merck Sharp & Dohme LLC, priority 2018, dated 2024).

What follows are compounds tested on symmetric dimethylation of arginine (SDMA) of PRMT5 substrates in MCF-7 cells (assay: PRMT5 Cell Target Engagement (TE) Assay). Conditions: Homo sapiens, MCF7, 72 h; MCF-7 cells treated for 3 days; nuclear SDMA by high content imaging; top concentration 10000 nM.
Type: cell-based
From the text: PRMT5 Cell Target Engagement (TE) Assay
The PRMT5 TE assay is a biomarker assay for identifying compounds that inhibit symmetric dimethylation of arginine (SDMA) of PRMT5 substrates. The following substrates have been reported for PRMT5: Histone H2A and H4 R3, Histone H3 R2, Histone 1-13 R8, spliceosome Sm proteins, ribosomal protein RPS10, p53, FEN1, nucleoplasmin, nucleolin, EGFR and EBNA. The assay will focus on detecting symnetrically dimethylated nuclear proteins using high content imaging technology. Detection of the expression of symmetrically dimethylated nuclear proteins is through a mixture of primary rabbit monoclonal antibodies to SDMA (CST 13222) which in turn recognized by an Alexafluor 488 dye-conjugated anti-rabbit IgG secondary antibody. The IN Cell Analyzer 2200 or Opera-Phenix measures nuclear Alexafluor 488 fluorescent dye intensity that is directly related to the level of expression of symmetrically dimethylated nuclear proteins at the single cell level. Nuclear AF488 dye intensities are compared to the mean value for DMSO treated cells (MIN) to report percent of inhibition for each compound-treated well.
In this assay, the cell potency (EC50) of each compound was determined from a ten point (1:3 serial dilution; top compound concentration of 10000 nM) titration curve using the following outlined procedure. Each well of a BD falcon collagen coated black/clear bottom 384-well plate was seeded with 4000 MCF-7 cells in 30 pal media and allowed to attach for 5 hours. Media is ATCC-formulated Eagle's Minimum Essential Medium, Catalog No. 30-2003. The following components were added to the base medium: 0.01 mg/mL human recombinant insulin; fetal bovine serum to a final concentration of 10%. Additional 30 pal of media containing 2× compounds were added to each well. Cells were treated for 3 days in 37° C. CO2 incubator. On day 3, cells were fixed with Cytofix, permeabilized with 0.4% Triton-X-100/Cytofix, and washed with D-PBS without Ca/Mg. Cells were blocked with Licor Odessey blocking reagent for 1 hour at room temperature, followed by incubation with anti-SDMA (1:1000) antibody at 4° C. overnight. 1° antibody was removed, followed by three washings with DPBS without Ca/Mg and 0.05% Tween20. Hoechst (5 μg/mL), Cell Mask deep stain (1:2000) and Alexa488-conjugated goat anti-rabbit IgG (2 μg/mL) was added for 1 hour at room temperature. A final washing step (three washes) was performed before sealing plate for imaging on in Cell Analyzer 2200 or Opera-Phenix. Images from analyzer were uploaded to Columbus for image analysis. IC50 values were determined by 4 parameters robust fit of percent fluorescence units vs. (Log 10) compound concentrations.

SMILES | EC50
Nc1nc2cc(C[C@@H]3CC[C@@]4(O)[C@@H]3O[C@@H](n3cc(C(F)F)c5c(N)ncnc53)[C@@H]4O)ccc2cc1Br [Example 43, (2R,3R,3aS,6S,6aR)-6-[(2-amino-3-bromoquinolin-7-yl)methyl]-2-[4-amino-5-(difluoromethyl)-7H-pyrrolo[2,3-d]pyrimidin-7-yl]hexahydro-3aH-cyclopenta[b]furan-3,3a-diol] | 1 nM
Cc1nc(N)c2c(F)cn([C@@H]3O[C@@H]4[C@H](Cc5ccc6cc(F)c(N)nc6c5)CC[C@]4(O)[C@H]3O)c2n1 [Example 44, (2R,3R,3aS,6S,6aR)-6-((2-amino-3-fluoroquinolin-7-yl)methyl)-2-(4-amino-5-fluoro-2-methyl-7H-pyrrolo[2,3-d]pyrimidin-7-yl)hexahydro-3aH-cyclopenta[b]furan-3,3a-diol 2,2,2-trifluoroacetate] | 8.8 nM
Nc1nc2cc(C[C@@H]3CC[C@@]4(O)[C@@H]3O[C@@H](n3ccc5c(N)nc(F)nc53)[C@@H]4O)ccc2cc1F [Example 45, (2R,3R,3aS,6S,6aR)-2(4-amino-2-fluoro-7H-pyrrolo[2,3-d]pyrimidin-7-yl)-6-((2-amino-3-fluoroquinolin-7-yl)methyl)hexahydro-3aH-cyclopenta[b]furan-3,3a-diol] | 1.2 nM
Nc1nc2cc(C[C@@H]3CC[C@@]4(O)[C@@H]3O[C@@H](n3ccc5c(N)nc(Cl)nc53)[C@@H]4O)ccc2cc1Cl [Example 47, (2R,3R,3aS,6S,6aR)-2-(4-amino-2-chloro-7H-pyrrolo[2,3-d]pyrimidin-7-yl)-6-[(2-amino-3-chloroquinolin-7-yl)methyl]hexahydro-3aH-cyclopenta[b]furan-3,3a-diol] | 1.4 nM
Nc1nc2cc(C[C@@H]3CC[C@@]4(O)[C@@H]3O[C@@H](n3ccc5c(N)nc(Cl)nc53)[C@@H]4O)ccc2cc1F [Example 48, (2R,3R,3aS,6S,6aR)-2-(4-amino-2-chloro-7H-pyrrolo[2,3-d]pyrimidin-7-yl)-6-[(2-amino-3-fluoroquinolin-7-yl)methyl]hexahydro-3aH-cyclopenta[b]furan-3,3a-diol] | 1.7 nM
Nc1nc2cc(O[C@H]3CC[C@@]4(O)[C@@H]3O[C@@H](n3cc(-c5ccccc5)c5c(N)ncnc53)[C@@H]4O)ccc2cc1Br [Example 49, (2R,3R,3aS,6S,6aR)-6-[(2-amino-3-bromoquinolin-7-yl)oxy]-2-(4-amino-5-phenyl-7H-pyrrolo[2,3-d]pyrimidin-7-yl)hexahydro-3aH-cyclcopenta[b]furan-3,3a-diol] | 13 nM
Nc1nc2cc(C[C@@H]3CC[C@@]4(O)[C@@H]3O[C@@H](n3cc(C(F)F)c5c(N)ncnc53)[C@@H]4O)ccc2cc1F [Example 51, (2R,3R,3aS,6S,6aR)-2-[4-amino-5-(difluoromethyl)-7H-pyrrolo[2,3-d]pyrimidin-7-yl]-6-[(2-amino-3-fluoroquinolin-7-yl)methyl]hexahydro-3aH-cyclopenta[b]furan-3,3a-diol] | 2.8 nM
Nc1nc2cc(O[C@H]3CC[C@@]4(O)[C@@H]3O[C@@H](n3cc(C5CC5)c5c(N)ncnc53)[C@@H]4O)ccc2cc1Br [Example 52, (2R,3R,3aS,6S,6aR)-6-[(2-amino-3-bromoquinolin-7-yl)oxy]-2-(4-amino-5-cyclopropyl-7H-pyrrolo[2,3-d]pyrimidin-7-yl)hexahydro-3aH-cyclopenta[b]furan-3,3a-diol] | 75.5 nM
Nc1nc2cc(C[C@H]3[C@H]4O[C@@H](n5ccc6c(N)ncnc65)[C@H](O)[C@@]4(O)CC3(F)F)ccc2cc1F [Example 53, (2R,3R,3aS,6S,6aR)-6-[(2-amino-3-fluoroquinolin-7-yl)methyl]-2-(4-amino-7H-pyrrolo[2,3-d]pyrimidin-7-yl)-5,5-difluorohexahdro-3aH-cyclopenta[b]furan-3,3a-diol] | 4.5 nM
Nc1nc2cc(C[C@H]3[C@H]4O[C@@H](n5ccc6c(N)ncnc65)[C@H](O)[C@@]4(O)C[C@@H]3F)ccc2cc1F [Example 54, (2R,3R,3aS,5S,6S,6aR)-6-[(2-amino-3-fluoroquinolin-7-yl)methyl]-2-(4-amino-7H-pyrrolo[2,3-d]pyrimidin-7-yl)-5-fluorohexahydro-3aH-cyclopenta[b]furan-3,3a-diol] | 8.1 nM
Nc1nc2cc(C[C@H]3[C@H]4O[C@@H](n5cc(F)c6c(N)ncnc65)[C@H](O)[C@@]4(O)C[C@@H]3F)ccc2cc1F [Example 55, (2R,3R,3aS,5S,6S,6aR)-2-(4-amino-5-fluoro-7H-pyrrolo[2,3-d]pyrimidin-7-yl)-6-[(2-amino-3-fluoroquinolin-7-yl)methyl]-5-fluorohexahydro-3aH-cyclopenta[b]furan-3,3a-diol,2,2,2-trifluoroethanol] | 3.9 nM
Nc1nc2cc(O[C@H]3CC[C@@]4(O)[C@@H]3O[C@@H](n3cc(F)c5c(N)ncnc53)[C@@H]4O)ccc2cc1Br [Example 56, (2R,3R,3aS,6S,6aR)-6-((2-amino-3-bromoquinolin-7-yl)oxy)-2-(4-amino-5-fluoro-7H-pyrrolo[2,3-d]pyrimidin-7-yl)hexahydro-3aH-cyclopenta[b]furan-3,3a-diol] | 1.2 nM
Nc1ncnc2c1ccn2[C@@H]1O[C@@H]2[C@@H](Oc3ccc4ccc(NCC(F)(F)F)nc4c3)CC[C@]2(O)[C@H]1O [Example 57, (2R,3R,3aS,6S,6aR)-2-(4-amino-7H-pyrrolo[2,3-d]pyrimidin-7-yl)-6-((2-((2,2,2-trifluoroethyl)amino)quinolin-7-yl)oxy)hexahydro-3aH-cyclopenta[b]furan-3,3a-diol] | 2.1 nM
Nc1ncnc2c1ccn2[C@@H]1O[C@@H]2[C@@H](Oc3ccc4ccc(NCC5CC5)nc4c3)CC[C@]2(O)[C@H]1O [Example 58, (2R,3R,3aS,6S,6aR)-2-(4-amino-7H-pyrrolo[2,3-d]pyrimidin-7-yl)-6-((2-((cyclopropylmethyl)amino)quinolin-7-yl)oxy)hexahydro-3aH-cyclopenta[b]furan-3,3a-diol] | 1 nM
Nc1nc2cc(C[C@@H]3CC[C@@]4(O)[C@@H]3O[C@@H](n3cc(F)c5c(N)ncnc53)[C@@H]4O)ccc2cc1F [Example 59, (2R,3R,3aS,6S,6aR)-6-((2-amino-3-fluoroquinolin-7-yl)methyl)-2-(4-amino-5-fluoro-7H-pyrrolo[2,3-d]pyrimidin-7-yl)hexahydro-3aH-cyclopenta[b]furan-3,3a-diol] | 4.6 nM
Cc1cn([C@@H]2O[C@@H]3[C@@H](Oc4ccc5cc(Br)c(N)nc5c4)CC[C@]3(O)[C@H]2O)c2ncnc(N)c12 [Example 60, (2R,3R,3aS,6S,6aR)-6-((2-amino-3-bromoquinolin-7-yl)oxy)-2-(4-amino-5-methyl-7H-pyrrolo[2,3-d]pyrimidin-7-yl)hexahydro-3aH-cyclopenta[b]furan-3,3a-diol] | 1.5 nM
Cc1nc(N)c2ccn([C@@H]3O[C@@H]4[C@H](Cc5ccc6cc(Br)c(N)nc6c5)CC[C@]4(O)[C@H]3O)c2n1 [Example 61, (2R,3R,3aS,6S,6aR)-2-(4-amino-2-methyl-7H-pyrrolo[2,3-d]pyrimidin-7-yl)-6-((2-amino-3 bromoquinolin-7-yl)methyl)hexahydro-3aH-cyclopenta[b]furan-3,3a-diol] | 3.2 nM
Cc1cn([C@@H]2O[C@@H]3[C@H](Cc4ccc5cc(F)c(N)nc5c4)CC[C@]3(O)[C@H]2O)c2ncnc(N)c12 [Example 62, (2R,3R,3aS,6S,6aR)-6-((2-amino-3-fluoroquinolin-7-yl)methyl)-2-(4-amino-5-methyl-7H-pyrrolo[2,3-d]pyrimidin-7-yl)hexahydro-3aH-cyclopenta[b]furan-3,3a-diol 2,2,2-trifluoroacetate] | 3.7 nM
Cc1nc(N)c2ccn([C@@H]3O[C@@H]4[C@@H](Oc5ccc6cc(Br)c(N)nc6c5)CC[C@]4(O)[C@H]3O)c2n1 [Example 63, (2R,3R,3aS,6S,6aR)-2-(4-amino-2-methyl-7H-pyrrolo[2,3-d]pynmidin-7-yl)-6-((2-amino-3-bromoquinolin-7-yl)oxy)hexahydro-3aH-cyclopenta[b]furan-3,3a-diol] | 5.6 nM
Cc1cn([C@@H]2O[C@@H]3[C@H](Cc4ccc5cc(Cl)c(N)nc5c4)CC[C@]3(O)[C@H]2O)c2ncnc(N)c12 [Example 66, (2R,3R,3aS,6S,6aR)-6-((2-amino-3-chloroquinolin-7-yl)methyl)-2-(4-amino-5-methyl-7H-pyrrolo[2,3-d]pyrimidin-7-yl)hexahydro-3aH-cyclopenta[b]furan-3,3a-diol] | 0.9 nM
